Test: xn = mol fraction of the nth substance listed
Conditions: 101 kPa, Liquid; for speed of sound: Pulse-echo method

CCCCCCCCCCO [decan-1-ol] + Cc1ccc(C)cc1
Conditions	mass density, 293.15 K [kg/m3]	mass density, 303.15 K [kg/m3]	mass density, 313.15 K [kg/m3]	speed of sound, 293.15 K [m/s]	speed of sound, 303.15 K [m/s]	speed of sound, 313.15 K [m/s]
x2 = 0	829.98	823.1	816.27	1396	1362	1329
x2 = 0.0806	831.76	824.74	817.76	1391	1356	1322
x2 = 0.1731	833.82	826.66	819.54	1385	1349	1314
x2 = 0.2506	835.6	828.33	821.08	1378	1342	1307
x2 = 0.3197	837.25	829.88	822.5	1373	1336	1300
x2 = 0.3693	838.49	831.04	823.57	1368	1331	1295
x2 = 0.4336	840.17	832.6	825.02	1362	1325	1289
x2 = 0.4929	841.79	834.12	826.43	1357	1320	1283
x2 = 0.5771	844.26	836.42	828.58	1350	1312	1275
x2 = 0.662	846.98	838.96	830.98	1344	1305	1267
x2 = 0.7265	849.2	841.06	832.94	1340	1300	1262
x2 = 0.7763	851.04	842.8	834.58	1337	1297	1258
x2 = 0.8293	853.13	844.77	836.44	1335	1294	1255
x2 = 0.8891	855.65	847.2	838.71	1333	1292	1252
x2 = 0.9369	857.84	849.27	840.68	1332	1290	1250

CCCCCCCCCCO [decan-1-ol] + Cc1ccccc1C
Conditions	mass density, 293.15 K [kg/m3]	mass density, 303.15 K [kg/m3]	mass density, 313.15 K [kg/m3]	speed of sound, 293.15 K [m/s]	speed of sound, 303.15 K [m/s]	speed of sound, 313.15 K [m/s]
x2 = 0	829.98	823.1	816.27	1396	1362	1329
x2 = 0.0766	832.48	825.52	818.51	1394	1359	1325
x2 = 0.1331	834.38	827.33	820.23	1391	1356	1322
x2 = 0.1823	836.1	828.96	821.79	1389	1354	1319
x2 = 0.2509	838.57	831.31	824.05	1386	1350	1315
x2 = 0.3173	841.06	833.71	826.36	1383	1347	1311
x2 = 0.3896	843.95	836.48	829.02	1379	1343	1307
x2 = 0.4556	846.73	839.16	831.61	1376	1339	1303
x2 = 0.5261	849.91	842.23	834.57	1372	1335	1298
x2 = 0.6054	853.77	845.95	838.18	1369	1332	1294
x2 = 0.6597	856.61	848.71	840.85	1367	1329	1292
x2 = 0.7364	860.94	852.91	844.92	1365	1327	1289
x2 = 0.8029	865.03	856.89	848.8	1364	1325	1287
x2 = 0.873	869.74	861.49	853.27	1364	1325	1287
x2 = 0.9447	875.04	866.72	858.33	1366	1326	1287

CCCCCCCCCO [nonan-1-ol] + CCc1ccccc1
Conditions	mass density, 293.15 K [kg/m3]	mass density, 303.15 K [kg/m3]	mass density, 313.15 K [kg/m3]	speed of sound, 293.15 K [m/s]	speed of sound, 303.15 K [m/s]	speed of sound, 313.15 K [m/s]
x2 = 0	827.7	820.82	813.88	1381	1347	1314
x2 = 0.0611	829.32	822.34	815.3	1378	1343	1309
x2 = 0.1285	831.14	824.06	816.91	1374	1338	1304
x2 = 0.1791	832.56	825.4	818.16	1371	1335	1300
x2 = 0.2466	834.5	827.23	819.87	1366	1330	1294
x2 = 0.3151	836.57	829.17	821.69	1362	1324	1288
x2 = 0.3717	838.35	830.85	823.26	1358	1320	1283
x2 = 0.4254	840.12	832.51	824.82	1354	1316	1279
x2 = 0.5007	842.74	834.99	827.14	1349	1311	1273
x2 = 0.5756	845.55	837.63	829.63	1345	1306	1267
x2 = 0.6411	848.19	840.11	831.97	1341	1302	1263
x2 = 0.7122	851.28	843.05	834.74	1339	1298	1259
x2 = 0.7798	854.46	846.08	837.59	1337	1296	1257
x2 = 0.8557	858.37	849.81	841.14	1336	1295	1255
x2 = 0.9341	862.85	854.1	845.28	1338	1295	1254

Reference: the NIST ThermoML archive (doi:10.1021/je100734t)
